Data as given in patent publication US20030118553A1, “Vector constructs for gene-therapy mediated radionuclide therapy of undifferentiated and medullary thyroid carcinomas and non-thyroidal tumours and metastases mediated thereof” (priority 2000, published 2003).
Like-named read-outs stand apart in the source and are kept apart here.

What was measured:
[1] = system: anaplastic thyroid cells transfected with NIS cDNA; settings: NIS-transfected tumor cells implanted into rats; cited from earlier work
[2] = system: tumor cell lines stably transfected with the NIS gene (K1, B-CPAP, 8505-C, SW480, DBTRG); test: In vitro radionuclide uptake in tumor cell lines stably transfected with the NIS gene; format: cell-based; settings: for radionuclide uptake in control cells: corresponding control cells, not NIS-transfected; for radionuclide uptake in tumor cell lines transfected with NIS: stably transfected K1, B-CPAP, 8505-C, SW480, DBTRG
Source text: FIG. 5A depicts in vitro results of the radionuclide uptake of I-125, Tc-99m-pertechnetate, and At-211 in tumor cell lines stably transfected with the NIS gene as compared to the corresponding control cells: K1 papillary thyroid carcinoma ECACC #92030501, B-CPAP papillary thyroid carcinoma DSMZ #ACC273, 8505-C anaplastic thyroid carcinoma DSMZ #ACC219, SW480 colon carcinoma DSMZ #ACC313, DBTRG glioblastoma DSMZ #ACC359.

[3] = system: tumor cells of a thyroid carcinoma cell line (K1) transfected with hNIS
Procedure: After a tumor growth for 3 weeks scintigraphic pictures were taken ventrally by means of scintiscanning (gamma camera ZLC370, Siemens) 3 and 24 h following the injection of 2 MBq I-123, 10 MBq Tc-99m-pertechnetate and 0.4 MBq At-211 (RVL=right-ventral-left).
The cDNAs of the therapeutic genes are amplified from human thyreocyte mRNA after reverse transcription by subsequent PCR with gene-specific primers, and the fragments thus obtained are subcloned in a cloning vector (e.g., pCRblunt, Invitrogen) in E. coli (K12 derivative). For this purpose, overlapping cDNA segments of the single genes are used, the fragments allowing the generation of full-length cDNAs due to their common restriction enzyme cleavage sites. The cDNAs are cloned into a vector for constitutive expression in mammalian cells (e.g., in pCIneo under control of the CMV promoter, Promega). The expression vectors with integrated cDNA (FIG. 7A, example) are used for transient transfection of different tumor cell lines (Fugen6, Roche) and for the generation of stably transfected cell lines by antibiotic selection (e.g., G418 for pCIneo). Radionuclide uptake measurements ([I-125], [At-211], [Tc-99m], [Re-188]) with cell cultures (FIGS. 5 and 6) are performed according to the method of Weiss et al. 1984. To establish an animal model stably transfected tumor cell lines and the corresponding control cells, respectively, are subcutaneously injected into nude NMRI mice (nu/nu). After tumor growth in the course of 3-4 weeks and application of different radionuclides (i. a., [I-123], [At-211], [Tc-99m]) sequential scintiscans are taken with a gamma camera and organ distribution over region of interest (ROI) analyses determined (FIG. 4).

[4] = system: stably transfected tumor cell lines (K1-NIS, SW480-NIS); test: At-211 transport in vitro: Na+ dependency and perchlorate inhibition; format: cell-based
Source text: FIG. 6A depicts the dependency upon Na^+ of the At-211 transport in vitro in stably transfected tumor cell lines (K1-NIS, SW480-NIS), wherein NaCl has been iso-osmotically replaced by choline chloride.

[5] = system: transiently transfected tumor cell lines; test: I-125 uptake in transiently NIS-transfected tumor cell lines; format: cell-based; settings: also follicular thyroid carcinoma, HepG2, LN-Cap, A498, SK-Mel30, CCF-STTG1, TT
Source text: In FIG. 5B the uptake of I-125 is additionally shown depending on a perchlorate blockage in transiently transfected tumor cell lines. […] The differences in the iodide uptake rates in different cell lines transfected with NIS are caused by the variable transfection efficiency of the distinct cell lines with the method used.

[6] = scintigraphically, K1-NIS tumor, NMRI nude mouse, compared to muscle tissue
[7] = scintiscans 3 and 24 h after injection, K1-wt control tumor not shown

| SMILES | radionuclide uptake in control cells [2] | radionuclide uptake in tumor cell lines transfected with NIS [2] | higher uptake in the NIS tumor as compared to muscle tissue [3, 6] [fold] | enrichment of the tracer in the tumor transfected with NIS [3, 7] | also measured |
| --- | --- | --- | --- | --- | --- |
| [131IH] [I-131] |  |  |  |  | maximum level after [1]: 90 min |
| [O]=[99Tc](=[O])(=[O])[O-] [Tc-99m-pertechnetate] | no uptake | highly significant uptake | 15 | significant enrichment |  |
| [123IH] [I-123] |  |  | 60 | significant enrichment |  |
| [O-][Cl+3]([O-])([O-])O [perchlorate] |  |  |  |  | inhibition of the astate transport ([4]; small perchlorate concentrations): clear inhibition |
| [125IH] [I-125] | no uptake | highly significant uptake |  |  | iodide uptake in transiently transfected tumor cell lines [5]: significant iodide uptake |
| [At] [At-211] | no uptake | highly significant uptake |  |  | enrichment of the tracer in the tumor transfected with NIS ([3]; mouse, in vivo): significant enrichment; higher uptake in the NIS tumor as compared to muscle tissue ([3]; mouse, in vivo): 10 fold; dependency upon Na+ of the transport ([4]; NaCl iso-osmotically replaced by choline chloride, K1-NIS, SW480-NIS): clear-cut dependency upon Na^+ |
